The text below walks through data of patent publication US12157741B2, “Macrocyclic inhibitors of DYRK1A” (DANA-FARBER CANCER INSTITUTE, INC., priority 2018, dated 2024).

Structures are written as SMILES.

Assay [1] deals with T1, various enzymes (Homo sapiens, UniProt P29323).
T1 sequence (P29323 19-1055): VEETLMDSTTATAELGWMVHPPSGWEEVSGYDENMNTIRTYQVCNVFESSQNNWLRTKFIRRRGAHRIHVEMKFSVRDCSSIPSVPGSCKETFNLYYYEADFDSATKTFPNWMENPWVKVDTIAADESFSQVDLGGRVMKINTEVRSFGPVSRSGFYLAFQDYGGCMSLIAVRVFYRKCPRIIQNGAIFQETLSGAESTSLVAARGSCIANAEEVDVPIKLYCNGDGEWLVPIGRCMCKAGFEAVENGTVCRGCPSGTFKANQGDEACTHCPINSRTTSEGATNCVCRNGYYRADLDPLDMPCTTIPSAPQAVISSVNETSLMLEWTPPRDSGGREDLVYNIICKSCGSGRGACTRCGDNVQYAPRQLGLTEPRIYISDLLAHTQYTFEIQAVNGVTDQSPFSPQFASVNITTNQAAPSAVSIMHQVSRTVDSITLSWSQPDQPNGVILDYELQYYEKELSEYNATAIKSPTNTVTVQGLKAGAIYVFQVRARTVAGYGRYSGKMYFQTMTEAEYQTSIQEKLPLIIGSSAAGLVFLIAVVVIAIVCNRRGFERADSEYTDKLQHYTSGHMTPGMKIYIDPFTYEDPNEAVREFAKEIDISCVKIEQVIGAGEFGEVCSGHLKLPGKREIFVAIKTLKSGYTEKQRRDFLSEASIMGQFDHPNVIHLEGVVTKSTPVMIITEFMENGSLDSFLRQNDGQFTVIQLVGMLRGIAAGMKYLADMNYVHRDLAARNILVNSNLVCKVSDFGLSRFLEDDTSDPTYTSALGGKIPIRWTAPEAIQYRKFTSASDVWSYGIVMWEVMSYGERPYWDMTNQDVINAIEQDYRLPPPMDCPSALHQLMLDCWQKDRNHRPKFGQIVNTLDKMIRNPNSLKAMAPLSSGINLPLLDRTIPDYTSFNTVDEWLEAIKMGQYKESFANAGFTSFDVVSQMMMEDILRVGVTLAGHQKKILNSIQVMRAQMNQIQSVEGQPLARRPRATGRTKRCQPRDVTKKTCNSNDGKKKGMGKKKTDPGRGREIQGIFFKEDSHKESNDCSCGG
The conditions noted are these: EPHB2; 1 uM.
Procedure: (§1) Ambit profiling from Eurofins (formerly Discoverx) was conducted in accordance with the manufacturer's instructions.

The target in assay [2] is various enzymes (Homo sapiens, UniProt P43405). The settings on record: SYK; 1 uM.
Procedure: as §1
The target in assay [3] is various enzymes (Homo sapiens, UniProt P49336). The settings on record: CDK8; 1 uM.
Procedure: as §1
The target of assay [4] is T2, various enzymes (Homo sapiens, UniProt Q13873).
T2 sequence (Q13873 27-1038): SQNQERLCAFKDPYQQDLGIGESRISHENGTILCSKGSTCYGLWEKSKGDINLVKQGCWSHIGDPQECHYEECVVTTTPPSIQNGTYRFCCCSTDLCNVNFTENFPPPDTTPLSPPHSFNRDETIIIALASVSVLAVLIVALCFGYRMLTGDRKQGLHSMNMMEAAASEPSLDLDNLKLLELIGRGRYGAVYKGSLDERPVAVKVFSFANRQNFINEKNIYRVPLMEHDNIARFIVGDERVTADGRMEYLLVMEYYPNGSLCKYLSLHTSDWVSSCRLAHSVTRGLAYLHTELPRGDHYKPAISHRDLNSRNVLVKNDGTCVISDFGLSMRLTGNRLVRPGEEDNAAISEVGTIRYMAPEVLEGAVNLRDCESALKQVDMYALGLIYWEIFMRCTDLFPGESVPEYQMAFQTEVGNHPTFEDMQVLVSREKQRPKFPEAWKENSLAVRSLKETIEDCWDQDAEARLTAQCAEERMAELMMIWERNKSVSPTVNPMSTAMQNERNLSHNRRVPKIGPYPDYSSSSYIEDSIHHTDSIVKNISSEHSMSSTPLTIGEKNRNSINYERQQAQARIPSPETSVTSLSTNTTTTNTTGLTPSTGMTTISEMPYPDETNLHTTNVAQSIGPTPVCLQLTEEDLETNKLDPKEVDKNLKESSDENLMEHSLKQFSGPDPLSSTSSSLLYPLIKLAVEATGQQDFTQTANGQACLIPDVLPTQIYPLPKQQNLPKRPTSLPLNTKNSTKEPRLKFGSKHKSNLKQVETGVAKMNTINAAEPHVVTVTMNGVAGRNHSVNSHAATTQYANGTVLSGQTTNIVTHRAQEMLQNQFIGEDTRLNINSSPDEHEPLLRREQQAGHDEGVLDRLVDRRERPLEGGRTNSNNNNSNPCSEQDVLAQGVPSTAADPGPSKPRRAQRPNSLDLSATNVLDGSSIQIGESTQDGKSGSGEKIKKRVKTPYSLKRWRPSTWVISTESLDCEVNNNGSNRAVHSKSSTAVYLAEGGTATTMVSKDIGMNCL
The settings on record: BMPR2; 1 uM.
Procedure: as §1

Assay [5] deals with T3, various enzymes (Homo sapiens, UniProt Q99640).
T3 sequence (Q99640 1-499): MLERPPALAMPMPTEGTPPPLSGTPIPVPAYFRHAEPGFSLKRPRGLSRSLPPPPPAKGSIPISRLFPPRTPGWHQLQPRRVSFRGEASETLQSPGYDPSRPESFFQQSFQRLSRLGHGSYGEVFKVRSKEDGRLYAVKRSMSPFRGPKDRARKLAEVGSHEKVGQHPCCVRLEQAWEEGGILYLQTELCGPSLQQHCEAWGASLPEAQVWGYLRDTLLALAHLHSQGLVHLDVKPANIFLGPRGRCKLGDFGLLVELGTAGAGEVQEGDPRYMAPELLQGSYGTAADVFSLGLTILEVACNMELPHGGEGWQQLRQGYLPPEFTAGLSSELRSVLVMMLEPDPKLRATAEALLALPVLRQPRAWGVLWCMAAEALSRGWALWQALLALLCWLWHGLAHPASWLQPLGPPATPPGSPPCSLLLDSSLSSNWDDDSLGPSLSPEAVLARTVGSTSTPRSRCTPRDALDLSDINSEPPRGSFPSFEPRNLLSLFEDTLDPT
The settings on record: PKMYT1; 1 uM.
Procedure: as §1

various enzymes (Homo sapiens, UniProt P49336), sequence (P49336 whole entry): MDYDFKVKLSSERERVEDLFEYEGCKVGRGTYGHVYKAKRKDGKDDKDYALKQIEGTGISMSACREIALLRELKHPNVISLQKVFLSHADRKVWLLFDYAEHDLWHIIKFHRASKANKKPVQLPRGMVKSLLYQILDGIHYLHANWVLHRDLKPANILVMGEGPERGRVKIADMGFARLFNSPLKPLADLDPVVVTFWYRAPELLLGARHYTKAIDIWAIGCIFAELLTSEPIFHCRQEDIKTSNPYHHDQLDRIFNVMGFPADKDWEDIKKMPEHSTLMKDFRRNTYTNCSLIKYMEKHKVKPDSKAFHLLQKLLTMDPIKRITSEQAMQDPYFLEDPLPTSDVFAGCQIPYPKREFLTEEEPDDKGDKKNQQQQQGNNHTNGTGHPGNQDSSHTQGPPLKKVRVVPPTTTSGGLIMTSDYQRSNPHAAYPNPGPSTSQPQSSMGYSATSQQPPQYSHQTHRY

As for `CN1Cc2nn(C)cc2-c2cnc3[nH]cc(c3c2)-c2cnn(c2)CCCC1=O` [Compound 41, (Z)-31,5-dimethyl-11H,21H,31H-5-aza-2(3,5)-pyrrolo[2,3-b]pyridina-1(4,1),3(4,3)-dipyrazolacyclononaphan-6-one], the Ambit profiling at various enzymes [1] was determined as 80; on various enzymes [2], 70; on various enzymes [3] it was 100; at various enzymes [4], 4.1; on various enzymes [5], 64.
Turning to `CN1Cc2nn(C)c(C#N)c2-c2cnc3[nH]cc(c3c2)-c2cn(nc2C(F)(F)F)CCCC1=O` [Compound 48, (Z)-31,5-dimethyl-6-oxo-13-(trifluoromethyl)-11H,21H,31H-5-aza-2(3,5)-pyrrolo[2,3-b]pyridina-1(4,1),3(4,3)-dipyrazolacyclononaphane-35-carbonitrile], the Ambit profiling on various enzymes [1] is 99; on various enzymes [2], 68; on various enzymes [3], 100; on various enzymes [4], 85; on various enzymes [5] it was 77.
